The record followed here is patent publication US20220323446A1 (Amgen Inc., priority 2021, published 2022).

The target of series [1] is T1, P-gp (Homo sapiens, UniProt P08183).
Experimental: (§1) Blood samples for digoxin PK were collected predose and up to 144 hours post-digoxin dose. Samples were measured using validated high-performance liquid chromatography tandem mass spectrometry methods. PK parameters were estimated using non-compartmental methods.
Series [2] has as its target T1, P-gp. Put plainly: clinical. The following applies: plasma, 0.5 mg.
Experimental: as §1
A further series deals with CYP3A4 (Homo sapiens, UniProt P08684). Put plainly: Phase 1 interaction study, midazolam (CYP3A4 substrate) with sotorasib. The following applies: 2 mg midazolam with 960 mg sotorasib after 14 days daily sotorasib vs midazolam alone.
[3] abbreviates: 0.5 mg digoxin, 960 mg sotorasib.
The mark [4] stands for this setting: with a single dose of sotorasib vs digoxin alone.

T1 sequence (P08183 whole entry): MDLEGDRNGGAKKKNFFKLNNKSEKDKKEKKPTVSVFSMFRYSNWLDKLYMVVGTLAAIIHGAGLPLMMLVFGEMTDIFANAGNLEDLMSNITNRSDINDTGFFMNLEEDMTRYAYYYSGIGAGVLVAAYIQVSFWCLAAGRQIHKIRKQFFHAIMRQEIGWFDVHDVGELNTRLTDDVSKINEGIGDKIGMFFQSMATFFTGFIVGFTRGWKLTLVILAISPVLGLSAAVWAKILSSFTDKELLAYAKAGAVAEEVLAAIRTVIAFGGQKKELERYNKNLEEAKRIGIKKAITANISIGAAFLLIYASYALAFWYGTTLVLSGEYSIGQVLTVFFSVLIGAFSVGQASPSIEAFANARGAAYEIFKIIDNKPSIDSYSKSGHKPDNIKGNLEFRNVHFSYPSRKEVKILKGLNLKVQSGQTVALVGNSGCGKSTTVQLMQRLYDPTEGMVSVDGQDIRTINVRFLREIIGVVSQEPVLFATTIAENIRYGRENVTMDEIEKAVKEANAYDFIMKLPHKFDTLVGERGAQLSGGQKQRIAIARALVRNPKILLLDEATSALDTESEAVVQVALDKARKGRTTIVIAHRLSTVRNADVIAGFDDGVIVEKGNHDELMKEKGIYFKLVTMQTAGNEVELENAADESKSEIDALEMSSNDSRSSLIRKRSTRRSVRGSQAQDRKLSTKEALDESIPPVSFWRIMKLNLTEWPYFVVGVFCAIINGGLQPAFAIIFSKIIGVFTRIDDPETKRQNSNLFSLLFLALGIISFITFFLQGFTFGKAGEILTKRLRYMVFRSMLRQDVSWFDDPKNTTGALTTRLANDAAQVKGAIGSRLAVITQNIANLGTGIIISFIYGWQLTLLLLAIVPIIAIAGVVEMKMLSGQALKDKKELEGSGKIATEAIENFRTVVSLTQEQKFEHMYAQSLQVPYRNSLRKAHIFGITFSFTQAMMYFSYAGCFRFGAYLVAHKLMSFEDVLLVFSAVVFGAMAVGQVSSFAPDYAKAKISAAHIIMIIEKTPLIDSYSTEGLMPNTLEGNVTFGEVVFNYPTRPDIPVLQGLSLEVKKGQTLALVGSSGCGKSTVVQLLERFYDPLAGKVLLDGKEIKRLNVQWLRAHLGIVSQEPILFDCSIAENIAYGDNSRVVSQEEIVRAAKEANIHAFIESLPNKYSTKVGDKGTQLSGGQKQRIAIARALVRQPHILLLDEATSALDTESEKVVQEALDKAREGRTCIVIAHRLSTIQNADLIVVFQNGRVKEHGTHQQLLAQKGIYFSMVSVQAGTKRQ
Sequence of CYP3A4 (P08684 whole entry): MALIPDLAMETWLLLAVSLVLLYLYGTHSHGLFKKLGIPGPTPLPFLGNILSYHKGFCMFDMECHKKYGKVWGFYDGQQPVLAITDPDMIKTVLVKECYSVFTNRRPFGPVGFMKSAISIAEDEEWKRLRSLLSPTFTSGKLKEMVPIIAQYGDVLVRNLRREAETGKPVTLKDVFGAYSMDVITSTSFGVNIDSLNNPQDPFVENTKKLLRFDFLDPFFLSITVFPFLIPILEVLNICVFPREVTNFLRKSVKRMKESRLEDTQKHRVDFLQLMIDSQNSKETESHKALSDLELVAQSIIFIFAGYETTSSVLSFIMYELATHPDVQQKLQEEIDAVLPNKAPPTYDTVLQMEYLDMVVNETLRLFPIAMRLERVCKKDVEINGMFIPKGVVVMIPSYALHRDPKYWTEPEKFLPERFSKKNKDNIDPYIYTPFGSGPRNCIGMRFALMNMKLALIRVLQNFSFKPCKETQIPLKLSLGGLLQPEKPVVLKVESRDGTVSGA

Turning to `C[C@H]1O[C@@H](O[C@H]2[C@@H](O)C[C@H](O[C@H]3[C@@H](O)C[C@H](O[C@H]4CC[C@@]5(C)[C@H](CC[C@@H]6[C@@H]5C[C@@H](O)[C@]5(C)[C@@H](C7=CC(=O)OC7)CC[C@]65O)C4)O[C@@H]3C)O[C@@H]2C)C[C@H](O)[C@@H]1O` [digoxin], at P-gp [1] (setting [3]), the “Digoxin mean terminal half-life (t1/2) with sotorasib compared to alone” value is “similar” and the “Digoxin median time to maximal plasma concentration (tmax) with sotorasib compared to alone” value is recorded as “similar”. Further, the safety and tolerability result at P-gp [1] (single doses of 0.5 mg digoxin alone or with 960 mg sotorasib) is “safe and well tolerated”. In addition, on P-gp [1] (setting [4]), the “increase of digoxin AUCinf” value is “approximately 21%” and the “increase of digoxin Cmax” value is listed as roughly 91%. On P-gp [2], the AUC(0-inf) was 33.2 ng·h/mL and the Cmax amounted to 1.9 ng/mL.

As to `Cc1ncc2n1-c1ccc(Cl)cc1C(c1ccccc1F)=NC2` [midazolam], at CYP3A4, the “decrease of midazolam AUV” value was found to be 53% and the “decrease of midazolam Cmax” value is reported as 48%.

One may read the AUC(0-inf) as the area under the concentration-time curve extrapolated to infinity. High values mean high exposure, low ones low exposure. As usually defined, the Cmax is the highest concentration seen after dosing.
